Results as given in patent US11090276B2, “Formulation of fat-soluble vitamin” (BASF SE, priority 2014, dated 2021).

Assay: Loss of MK-7 on direct compression into tablets with calcium or magnesium excipients
Type: physicochemical
Details: directly compressed with excipients such as calcium or magnesium
Source text: However, vitamins K1 and K2 degrade when formulated in a conventional dosage form, such as a tablet, in the presence of mineral salts, in particular calcium or magnesium salts. Moreover, during formulation of the dosage form, there is a still yet further opportunity for degradation. When directly compressed along with some excipients in a tablet such as calcium or magnesium, a serious reduction in the amount of MK-7 present after tableting can be observed, such as up to 30% reduction in MK-7. As MK-7 is expensive, that is not an acceptable loss on formulation. The MK-7 degradation appears to be accelerated in the presence of calcium or magnesium. As calcium and magnesium are valuable minerals, it is desirable to be able to formulate vitamins in general and MK-7 in particular with calcium and magnesium.

reduction in MK-7 after tableting: up to 30%
Structure (SMILES): CC(C)=CCC/C(C)=C/CC/C(C)=C/CC/C(C)=C/CC/C(C)=C/CC/C(C)=C/CC/C(C)=C/CC1=C(C)C(=O)c2ccccc2C1=O [MK-7]
